Reference: US9522913B2, “Pesticidally active bicyclic heterocycles with sulphur containing substituents” (Syngenta Participations AG, priority 2013, dated 2016)

Assays:
Type in all cases: in vivo
[1] = test system: Spodoptera littoralis (Egyptian cotton leaf worm); experiment: Activity against Spodoptera littoralis, larvicide, feeding/residual contact activity, preventive (Example B1); settings: foliar, 72 h, cotton leaf discs sprayed, L1 larvae, 3 days after treatment, read-out: activity (mortality, repellent effect, feeding behaviour, growth regulation)
Text: (Larvicide, Feeding/Residual Contact Activity, Preventive) Cotton leaf discs are placed on agar in a 24-well microtiter plate and sprayed with test solutions. After drying, the leaf discs are infested with 5 L1 larvae. The samples are checked for mortality, repellent effect, feeding behaviour, and growth regulation 3 days after treatment (DAT).

[2] = test system: Diabrotica balteata (corn root worm); experiment: Activity against Diabrotica balteata, larvicide, feeding/residual contact activity, preventive (Example B2); settings: 120 h, maize sprouts sprayed, L2 larvae, 5 days incubation, read-out: activity (larval mortality, growth regulation)
Experimental: (§1) (Larvicide, Feeding/Residual Contact Activity, Preventive)
Maize sprouts, placed on an agar layer in 24-well micro titer plates (MTP) are treated with test solutions by spraying. After drying, the MTPs are infested with larvae (L2, 6-10 per well). After an incubation period of 5 days, samples are checked for larval mortality, and growth regulation.

[3] = test system: Spodoptera littoralis (Egyptian cotton leaf worm); experiment: Activity against Spodoptera littoralis, systemic activity (Example B3); settings: 120 h, systemic via lettuce roots in agar, 5 days after infestation, read-out: activity (mortality, repellent effect, feeding behavior, growth regulation)
Text: Test compounds were applied by pipette into 24 well plates and mixed with agar. Lettuce seeds were placed on the agar and the multi well plate is closed by another plate which contains also agar. After 7 days the roots have absorbed the compound and the lettuce has grown into the lid plate. The lettuce leaves were now cut off into the lid plate. Spodoptera eggs were pipetted through a plastic stencil on a humid gel blotting paper and the plate closed with it. The samples are checked for mortality, repellent effect, feeding behavior, and growth regulation 5 days after infestation.

[4] = test system: Plutella xylostella (diamond back moth); experiment: Activity against Plutella xylostella, larvicide, feeding/residual contact activity, preventive (Example B4); settings: 120 h, artificial diet, L2 larvae, 5 days incubation, read-out: activity (larval mortality, antifeedant, growth regulation)
Experimental: as §1
24-well microtiter plate (MTP) with artificial diet was treated with test solutions by pipetting. After drying, the MTPs were infested with L2 larvae (10-15 per well). After an incubation period of 5 days, samples were checked for larval mortality, antifeedant and growth regulation.

[5] = test system: Myzus persicae (green peach aphid); experiment: Activity against Myzus persicae, feeding/residual contact activity, preventive, mixed population (Example B5); settings: foliar, 144 h, sunflower leaf discs sprayed, mixed-age aphids, 6 DAT
Experimental: (Feeding/Residual Contact Activity, Preventive), Mixed Population
Sunflower leaf discs were placed on agar in a 24-well microtiter plate and sprayed with test solutions.
After drying, the leaf discs were infested with an aphid population of mixed ages. After an incubation period of 6 DAT, samples were checked for mortality and special effects (e.g. phytotoxicity).

[6] = test system: Myzus persicae (green peach aphid); experiment: Activity against Myzus persicae, systemic/feeding activity, curative, mixed population (Example B6); settings: 144 h, roots of infested pea seedlings in test solution, 6 days after introduction
Text: (Systemic/Feeding Activity, Curative), Mixed Population
Roots of pea seedlings, infested with an aphid population of mixed ages, were placed directly in the test solutions. 6 days after introduction, samples were checked for mortality and special effects on the plant.

[7] = test system: Aedes aegypti (yellow fever mosquito); experiment: whole plant or invertebrate; settings: after 48 h, application rate of 200 ppm in ethanol, adult females, read-out: control of Aedes aegypti (mortality)
Experimental: Test solutions, at an application rate of 200 ppm in ethanol, were applied to 12-well tissue culture plates. Once the deposits were dry, five, two to five days old adult female Aedes aegypti were added to each well, and sustained with a 10% sucrose solution in a cotton wool plug. Assessment of knockdown was made one hour after introduction, and mortality was assessed at 24 and 48 hours after introduction.

[8] = test system: Bemisia tabaci (cotton white fly); experiment: Activity against Bemisia tabaci, adulticide contact activity, preventative (Example B7); settings: foliar, 168 h, cotton leaf discs sprayed, adult white flies, 7 DAT
Experimental: (Adulticide Contact Activity, Preventative), Adult
Cotton leaf discs were placed on agar in a 24-well microtiter plate and sprayed with test solutions. After drying, the leaf discs were infested with adult white flies. After an incubation period of 7 DAT, samples were checked for mortality and special effects (e.g. phytotoxicity).

[9] = test system: Rhopalosiphum padi (bird cherry oat aphid); experiment: Seed treatment activity against Rhopalosiphum padi on barley (Example B8); settings: after 28 days, initial loading of 0.3 mg a.i. per seed
Experimental: Seed Treatment Activity Against Rhopalosiphum padi (Bird Cherry Oat Aphid) (Seed Treatment Systemic/Feeding Activity on Barley, Preventive, Initial and Residual Activity (Infestation 2 and 4 Weeks after Sowing)), Mixed Population
A treated barley seed is sown in a 350 ml pot filled with soil. Two weeks after sowing phytotoxicity is estimated and expressed in percentage compared to the control. Furthermore the barley seedling is infested with an aphid population of mixed stages. After an incubation period of seven days the grade of efficacy compared to the control is estimated and expressed in percentage. Treatments with all replicates having a level of efficacy over 90% are re-infested with aphids 28 days after sowing for determination of residual activity. Assessment procedures remain the same as described above.

SMILES	mortality at 400 ppm [1] [%]	mortality at 400 ppm [2] [%]	mortality at 12.5 ppm [3] [%]	mortality at 400 ppm [4] [%]	mortality at 400 ppm [5] [%]	mortality at 24 ppm [6] [%]	mortality at 200 ppm [7] [%]	mortality at 400 ppm [8] [%]	control of Rhopalosiphum padi (efficacy compared to the control) [9]
CCS(=O)(=NC(=O)C(F)(F)F)c1cc(C(F)(F)F)cnc1-c1nc2cc(C(F)(F)F)cnc2n1C (stereo not shown) [P1.3, N-[ethyl-[2-[3-methyl-6-(trifluoromethyl)imidazo[4,5-b]pyridin-2-yl]-5-(trifluoromethyl)-3-pyridyl]-oxo-λ^6-sulfanylidene]-2,2,2-trifluoro-acetamide]	> 80	> 80	≥ 80	> 80	> 80	≥ 80	≥ 80		
CCS(=O)(=NC(N)=O)c1cc(C(F)(F)F)cnc1-c1nc2cc(C(F)(F)F)cnc2n1C (stereo not shown) [P1.5, [ethyl-[2-[3-methyl-6-(trifluoromethyl)imidazo[4,5-b]pyridin-2-yl]-5-(trifluoromethyl)-3-pyridyl]-oxo-λ^6sulfanylidene]urea]		> 80					≥ 80		
CCC(=O)N=S(=O)(CC)c1cc(C(F)(F)F)cnc1-c1nc2cc(C(F)(F)F)cnc2n1C (stereo not shown) [P1.7, N-[ethyl-[2-[3-methyl-6-(trifluoromethyl)imidazo[4,5-b]pyridin-2-yl]-5-(trifluoromethyl)-3-pyridyl]-oxo-λ^6-sulfanylidene]propanamide]	> 80		≥ 80	> 80	> 80		≥ 80	> 80	
CCS(=N)(=O)c1cc(C(F)(F)F)cnc1-c1nc2cc(C(F)(F)F)cnc2n1C (stereo not shown) [P1.4, ethyl-imino-[2-[3-methyl-6-(trifluoromethyl)imidazo[4,5-b]pyridin-2-yl]-5-(trifluoromethyl)-3-pyridyl]-oxo-λ^6-sulfane]	> 80		≥ 80	> 80	> 80	≥ 80		> 80	at least 80%
CCS(=O)(=NC)c1cc(C(F)(F)F)cnc1-c1nc2cc(C(F)(F)F)cnc2n1C (stereo not shown) [P1.6, ethyl-methylimino-[2-[3-methyl-6-(trifluoromethyl)imidazo[4,5-b]pyridin-2-yl]-5-(trifluoromethyl)-3-pyridyl]-oxo-λ^6-sulfane]	> 80	> 80	≥ 80	> 80	> 80	≥ 80	≥ 80	> 80	
CCS(=O)(=NC=O)c1cc(C(F)(F)F)cnc1-c1nc2cc(C(F)(F)F)cnc2n1C (stereo not shown) [P1.10, N-[ethyl-[2-[3-methyl-6-(trifluoromethyl)imidazo[4,5-b]pyridin-2-yl]-5-(trifluoromethyl)-3-pyridyl]-oxo-λ^6sulfanylidene]formamide]	> 80		≥ 80	> 80	> 80	≥ 80		> 80	
CC/S(=N\C#N)c1cc(C(F)(F)F)cnc1-c1nc2cc(C(F)(F)F)cnc2n1C (stereo not shown) [P1.1, [ethyl-[2-[3-methyl-6-(trifluoromethyl)imidazo[4,5-b]pyridin-2-yl]-5-(trifluoromethyl)-3-pyridyl]-λ^4-sulfanylidene]cyanamide]		> 80							
CCS(=O)(=NC#N)c1cc(C(F)(F)F)cnc1-c1nc2cc(C(F)(F)F)cnc2n1C (stereo not shown) [P1.2, [ethyl-[2-[3-methyl-6-(trifluoromethyl)imidazo[4,5-b]pyridin-2-yl]-5-(trifluoromethyl)-3-pyridyl]-oxo-λ^6sulfanylidene]cyanamide]	> 80	> 80							
CCS(=O)(=NC(=O)OC)c1cc(C(F)(F)F)cnc1-c1nc2cc(C(F)(F)F)cnc2n1C (stereo not shown) [P1.8, methyl N-[ethyl-[2-[3-methyl-6-(trifluoromethyl)imidazo[4,5-b]pyridin-2-yl]-5-(trifluoromethyl)-3-pyridyl]-oxo-λ^6-sulfanylidene]carbamate]	> 80		≥ 80	> 80	> 80	≥ 80	≥ 80	> 80	
